Experiments:
[1] = Photobleaching of lycopenes in mineral oil; format: physicochemical; conditions: 0.1% in Mineral Oil, visible light and oxygen, FIG. 1
From the text: FIG. 1A is a graph illustrating the effects of photobleaching of lycopenes dissolved in mineral oil, over time.
The principal plant actives under development are the hydrophobic plant actives derived from carrot extracts (carotenes) and tomato paste (lycopenes). Both actives are known anti-cancer agents and regulators of epithelial homeostasis. Their role in epidermopoeisis and skin care is still under investigation. For both materials, extracts have been prepared and enriched by sequential extraction with ethyl alcohol and organic solvents. These extracts are then dried to a powder form and solubilized in Mineral Oil. A clear necessity for the preparation of such formulations is to prevent the photo-bleaching that occurs in mineral oil solutions exposed to visible light and oxygen This may typically be accomplished by addition of mineral oil solutions of Vitamin E (0.1%). […] Similar results have been obtained with the addition of Vitamin E to prevent the photo-bleaching of carotenes derived from Carrot Extracts.

[2] = DPPH* radical antioxidant test of plant extracts; format: biochemical; conditions: DPPH* assay, reference; read-out: EC50 of Vitamin E

**Q.** Which results are given for Tocopherol [Vitamin E]?
**A.** effect on photo-bleaching of lycopenes [1]: photo-protective effect; EC50 [2]: 46 µM

Source: patent publication US20050048020A1, “Novel topical delivery system for plant derived anti-irritants” (priority 2003, published 2005)
